Data published in paper PMC7320011, “Rationally designed ruthenium complexes for 1- and 2-photon photodynamic therapy” (Nature Communications, 2020).
Like-named read-outs stand apart in the source and are kept apart here.

Legend:
[1] = Emission and luminescence quantum yield; assay type: physicochemical; settings: acetonitrile
Description: The absorption spectra of the sample was measured with a SpectraMax M2 Spectrometer (Molecular Devices). For the measurements of the emission, the sample was irradiated at 355 nm with a NT342B Nd-YAG pumped optical parametric oscillator (Ekspla). The emission was focused at right angle to the excitation pathway and directed to a Princeton Instruments Acton SP-2300i monochromator. The signal was detected with a XPI-Max 4 CCD camera (Princeton Instruments).
The sample was prepared in an acetonitrile solution with an absorption of 0.1 at 355 nm. The sample was irradiated at 355 nm with a NT342B Nd-YAG pumped optical parametric oscillator (Ekspla). The emission was focused at right angle to the excitation pathway and directed to a Princeton Instruments Acton SP-2300i monochromator. The signal was detected with a XPI-Max 4 CCD camera (Princeton Instruments). The luminescence quantum yields were determined by comparison with the reference [Ru(2,2′-bipyridine)3]Cl2 in acetonitrile (Φem = 5.9%)[58] applying the following formula:2 Φem,sample=Φem,reference×Freference/Fsample×Isample/Ireference×nsample/nreference^2, 3 F=1−10^-A. Φem = luminescence quantum yield, F = fraction of light absorbed, I = integrated emission intensities, n = refractive index, A = absorbance of the sample at irradiation wavelength.

[2] = Singlet oxygen quantum yield, direct evaluation (1O2 phosphorescence); assay type: physicochemical
Description: Direct evaluation: the sample was prepared in an air-saturated acetonitrile or deuterated water solution with an absorption of 0.2 at 450 nm. The sample was irradiated at 450 nm with a mounted M450LP1 LED (Thorlabs), whose light was focused with aspheric condenser lenses. Using a T-Cube LED Driver (Thorlabs), the intensity of the irradiation was varied and monitored with an optical power and energy meter. The emission was focused at right angle to the excitation pathway and directed to a Princeton Instruments Acton SP-2300i monochromator. To cut off light at wavelengths shorter than 850 nm, a longpass glass filter was placed in front of the monochromator entrance slit. The signal was detected with an EO-817L IR-sensitive liquid-nitrogen cooled germanium diode detector (North Coast Scientific Corp.). The luminescence signal, centered at 1270 nm, was measured from 1100 to 1400 nm. The obtained data were analyzed upon plotting the integrated luminescence peaks against the percentage of the irradiation intensity. The slope of the linear regression was calculated and compared with the reference Rose Bengal (Φ = 76%)[59]. The absorption of the sample was corrected with an absorption correction factor. The singlet oxygen quantum yields were calculated using the following formula:4 Φsample=Φreference×Ssample/Sreference×Ireference/Isample, 5 I=I0×1−10^-A.
Φ = singlet oxygen quantum yield, S = slope of the linear regression of the plot of the areas of the singlet oxygen luminescence peaks against the irradiation intensity, I = absorption correction factor, I0 = light intensity of the irradiation source, and A = absorption of the sample at irradiation wavelength.

[3] = system: human glioblastoma astrocytoma (U373) cells;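 also: Resazurin-to-resorufin fluorescence viability readout, 8 h compound exposure then medium change, light dose 3.1 J cm^−2 at 480 nm or 9.5 J cm^−2 at 540 nm, analysed 40 h later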
[4] = system: human glioblastoma astrocytoma (U373) cells; experiment: (Photo-)cytotoxicity on 2D cell monolayers, U373; settings: for PI (480 nm): U373, dark vs 480 nm; for PI (540 nm): U373, dark vs 540 nm; for IC50: 1-3 as chloride salts;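 as to all read-outs here: Resazurin-to-resorufin fluorescence viability readout, 8 h compound exposure then medium change, light dose 3.1 J cm^−2 at 480 nm or 9.5 J cm^−2 at 540 nm, analysed 40 h later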
[5] = system: mouse colon carcinoma (CT-26) cells; experiment: (Photo-)cytotoxicity on 2D cell monolayers, CT-26; settings: for PI (480 nm): CT-26, dark vs 480 nm; for PI (540 nm): CT-26, dark vs 540 nm; for IC50: 1-3 as chloride salts
Description: (§1) A total of 4 × 10^3 cells were seeded on 96-well plates and allowed to adhere overnight. The cells were treated with increasing concentrations of the sample diluted in cell media achieving a total volume of 200 μL. The cells were incubated with the sample for 8 h and, after this time, the medium refreshed. To study the phototoxic effect of the sample, the cells were exposed to 480 nm (spectral half-width: 20 nm, 10 min, 5.2 mW cm^−2, 3.1 J cm^−2) or 540 nm (spectral half-width: 30 nm, 40 min, 4.0 mW cm^−2, 9.5 J cm^−2) light using an Atlas Photonics LUMOS BIO irradiator. To study the dark cytotoxicity of the sample, the cells were not irradiated and the medium exchanged. The cells were grown for an additional 40 h at 37 °C. After this time, the medium was replaced with fresh medium containing resazurin with a final concentration of 0.2 mg mL^−1. The cells were incubated for 4 h and the amount of the fluorescent product resorufin determined (λex = 540 nm, λem = 590 nm) with a SpectraMax M2 Microplate Reader (Molecular Devices). The obtained data was analyzed with the GraphPad Prism software.

[6] = Photostability (absorption spectra upon irradiation); assay type: physicochemical; settings: 450 nm, 0 to 10 min (13.2 J cm^−2), air-saturated acetonitrile
Description: The sample was prepared in an air-saturated acetonitrile solution. Using a Atlas Photonics LUMOS BIO irradiator, the sample was constantly irradiated at 450 nm in time intervals from 0 to 10 min (13.2 J cm^−2). The absorption spectra from 350 to 700 nm was monitored with a SpectraMax M2 Microplate Reader (Molecular Devices) at each time interval. As positive and negative controls, respectively, [Ru(2,2′-bipyridine)3]Cl2 and Protoporphyrin IX were used.

[7] = system: noncancerous retinal pigment epithelium (RPE-1) cells
[8] = Distribution coefficient (shake-flask, octanol/PBS); assay type: physicochemical; settings: ICP-MS
Description: Using the “shake-flask” method, the distribution coefficient between the PBS and octanol phase of the sample was determined. The PBS and octanol phases were previously saturated in each other. The sample was dissolved in the phase, which is dissolving best the compound. This solution was added to an equal volume of the other phase and mixed at 190 rpm overnight with a sample mixer. Following this, the solutions were equilibrated for 4 h. The phases were carefully separated from each other. The amount of the sample in each phase was determined by ICP-MS. The evaluation was repeated three times and the ratio between the organic and aqueous phase determined.

[9] = system: noncancerous retinal pigment epithelium (RPE-1) cells; experiment: (Photo-)cytotoxicity on 2D cell monolayers, RPE-1; settings: for PI (480 nm): RPE-1, dark vs 480 nm; for PI (540 nm): RPE-1, dark vs 540 nm; for IC50: 1-3 as chloride salts
[10] = system: mouse colon carcinoma (CT-26) cells
Description: as §1

[11] = Singlet oxygen quantum yield, indirect evaluation (1O2 scavenger absorbance); assay type: physicochemical
Description: Indirect evaluation: measurement in acetonitrile: the sample was prepared in an air-saturated acetonitrile solution with an absorption of 0.2 at the irradiation wavelength, N,N-dimethyl-4-nitrosoaniline aniline (RNO, 24 µM) and imidazole (12 mM). Measurement in PBS buffer: the sample was prepared in an air-saturated PBS solution containing the complex with an absorption of 0.2 at the irradiation wavelength, N,N-dimethyl-4-nitrosoaniline aniline (RNO, 20 µM) and histidine (10 mM). The samples were irradiated for various time points with an Atlas Photonics LUMOS BIO irradiator. The absorption of the samples was constantly monitored with a SpectraMax M2 Microplate Reader (Molecular Devices). The difference in absorption (A0 − A) at 420 nm for the measurement in acetonitrile or at 440 nm for the measurement in PBS was determined. The difference in absorption was then plotted against the irradiation times and the slope of the linear regression calculated. The absorption of the sample was corrected with an absorption correction factor. The singlet oxygen quantum yields were calculated using the same formulas as used for the direct evaluation.

[12] = read-out: IC50 480 nm (10 min, 3.1 J cm-2), U373, 480 nm
[13] = read-out: IC50 dark, U373, dark
[14] = read-out: IC50 540 nm (40 min, 9.5 J cm-2), CT-26, 540 nm
[15] = read-out: IC50 dark, CT-26, dark
[16] = read-out: IC50 540 nm (40 min, 9.5 J cm-2), RPE-1, 540 nm
[17] = read-out: IC50 dark, RPE-1, dark

CN(C)c1ccc(/C=C/c2ccnc(-c3cc(/C=C/c4ccc(N(C)C)cc4)ccn3)c2)cc1.CN(C)c1ccc(/C=C/c2ccnc(-c3cc(/C=C/c4ccc(N(C)C)cc4)ccn3)c2)cc1.F[P-](F)(F)(F)(F)F.F[P-](F)(F)(F)(F)F.[Ru+2].c1ccc(-c2ccccn2)nc1 [compound 4, [Ru(2,2′-bipyridine)((E,E′)-4,4′-Bis[p-(N,N-dimethylamino)styryl]-2,2′-bipyridine)2][PF6]2]
Φem, luminescence quantum yield [1]: 0.4%
λem, emission maximum [1]: 703 nm
Singlet oxygen quantum yield, Direct 450 nm CH3CN [2]: 34%
IC50 [3]: 19 µM
PI (480 nm) [4]: > 7.0
PI (540 nm) [4]: > 5.3
IC50 [4, 12]: 14.3 µM
IC50 [4, 13]: > 100 µM
PI (480 nm) [5]: > 13.7
PI (540 nm) [5]: > 10.4
IC50 [5, 14]: 9.6 µM
IC50 [5, 15]: > 100 µM
photostability (change of absorption spectra upon irradiation) [6]: small changes in the absorption spectra
IC50 [7]: 10.9 µM
logD (octanol/PBS) [8]: +1.7 ± 0.3
PI (480 nm) [9]: > 9.2
PI (540 nm) [9]: > 6.8
IC50 [9, 16]: 14.7 µM
IC50 [9, 17]: > 100 µM
IC50 [10]: 7.3 µM
Singlet oxygen quantum yield, Indirect 450 nm CH3CN [11]: 40%
Singlet oxygen quantum yield, Indirect 450 nm PBS [11]: 2%
Singlet oxygen quantum yield, Indirect 540 nm CH3CN [11]: 37%
Singlet oxygen quantum yield, Indirect 540 nm PBS [11]: 3%

COc1ccc(/C=C/c2ccnc(-c3cc(/C=C/c4ccc(OC)cc4)ccn3)c2)cc1.COc1ccc(/C=C/c2ccnc(-c3cc(/C=C/c4ccc(OC)cc4)ccn3)c2)cc1.F[P-](F)(F)(F)(F)F.F[P-](F)(F)(F)(F)F.[Ru+2].c1ccc(-c2ccccn2)nc1 [compound 5, [Ru(2,2′-bipyridine)((E,E′)-4,4′-Bis[p-methoxystyryl]-2,2′-bipyridine)2][PF6]2]
Φem, luminescence quantum yield [1]: 1.4%
λem, emission maximum [1]: 674 nm
Singlet oxygen quantum yield, Direct 450 nm CH3CN [2]: 54%
IC50 [3]: 17.8 µM
PI (480 nm) [4]: > 6.5
PI (540 nm) [4]: > 5.6
IC50 [4, 12]: 15.3 µM
IC50 [4, 13]: > 100 µM
PI (480 nm) [5]: > 19.6
PI (540 nm) [5]: > 16.1
IC50 [5, 14]: 6.2 µM
IC50 [5, 15]: > 100 µM
photostability (change of absorption spectra upon irradiation) [6]: no significant differences in the absorption spectra
IC50 [7]: 10.2 µM
logD (octanol/PBS) [8]: +1.4 ± 0.2
PI (480 nm) [9]: > 9.8
PI (540 nm) [9]: > 7.9
IC50 [9, 16]: 12.7 µM
IC50 [9, 17]: > 100 µM
IC50 [10]: 5.1 µM
Singlet oxygen quantum yield, Indirect 450 nm CH3CN [11]: 51%
Singlet oxygen quantum yield, Indirect 450 nm PBS [11]: 8%
Singlet oxygen quantum yield, Indirect 540 nm CH3CN [11]: 46%
Singlet oxygen quantum yield, Indirect 540 nm PBS [11]: 6%

CN(C)c1ccc(/C=C/c2ccnc(-c3cc(/C=C/c4ccc(N(C)C)cc4)ccn3)c2)cc1.F[P-](F)(F)(F)(F)F.F[P-](F)(F)(F)(F)F.[Ru+2].c1ccc(-c2ccccn2)nc1.c1ccc(-c2ccccn2)nc1 [compound 6, [Ru(2,2′-bipyridine)2((E,E′)-4,4′-Bis[p-(N,N-dimethylamino)styryl]-2,2′-bipyridine)][PF6]2]
Φem, luminescence quantum yield [1]: 0.5%
λem, emission maximum [1]: 697 nm
Singlet oxygen quantum yield, Direct 450 nm CH3CN [2]: 46%
IC50 [3]: 10.7 µM
PI (480 nm) [4]: > 12.0
PI (540 nm) [4]: > 9.3
IC50 [4, 12]: 8.3 µM
IC50 [4, 13]: > 100 µM
PI (480 nm) [5]: > 41.7
PI (540 nm) [5]: > 32.3
IC50 [5, 14]: 3.1 µM
IC50 [5, 15]: > 100 µM
photostability (change of absorption spectra upon irradiation) [6]: small changes in the absorption spectra
IC50 [7]: 7.3 µM
logD (octanol/PBS) [8]: +0.7 ± 0.2
PI (480 nm) [9]: > 13.7
PI (540 nm) [9]: > 12.3
IC50 [9, 16]: 8.1 µM
IC50 [9, 17]: > 100 µM
IC50 [10]: 2.4 µM
Singlet oxygen quantum yield, Indirect 450 nm CH3CN [11]: 53%
Singlet oxygen quantum yield, Indirect 450 nm PBS [11]: 2%
Singlet oxygen quantum yield, Indirect 540 nm CH3CN [11]: 38%
Singlet oxygen quantum yield, Indirect 540 nm PBS [11]: 2%
